Laboratory results: article PMC5656713 (Advances in Therapy, 2017)
Read-outs that look alike come from different tables or passages of the source.

Experiments:
clinical [1] = conditions: male, human, in vivo
[2] = male, human, in vivo
Safety and tolerability = type: in vivo, human
[3] = cited from earlier work
clinical [4] = conditions: male, human, in vivo, 600 mg
[5] = with concomitant ketoconazole 200 mg twice daily vs mifepristone 600 mg alone
plasma ACTH = assay: Fasting plasma ACTH during mifepristone alone and plus ketoconazole; type: in vivo, human; conditions: day 13, predose, after mifepristone 600 mg alone
glucocorticoid receptor = conditions: cited from earlier work
serum cortisol = assay: Fasting serum cortisol during mifepristone alone and plus ketoconazole; type: in vivo, human; conditions: day 13, predose, after mifepristone 600 mg alone

Compound | Tmax (clinical [1]; 200 mg) | AUC(0-t) (clinical [1]; AUC (AUC0–12) GLSM) | Mean predose trough concentrations [2] | subjects with at least one treatment-emergent AE (Safety and tolerability; coadministration of mifepristone and ketoconazole (period 2), 8/14) | subjects with at least one treatment-emergent AE (Safety and tolerability; mifepristone alone (period 1), 9/16) | serious AEs (Safety and tolerability; whole study, mifepristone alone and plus ketoconazole) | half-life [3] | half-life (clinical [4]) | increase in systemic exposure based on GMR, AUC0–24 [5] | Mean ACTH (plasma ACTH) | affinity to the glucocorticoid receptor compared with 100% for mifepristone (glucocorticoid receptor) | Mean serum cortisol (serum cortisol)
CC(=O)N1CCN(c2ccc(OCC3COC(Cn4ccnc4)(c4ccc(Cl)cc4Cl)O3)cc2)CC1 (stereo not drawn) [Ketoconazole] | 3 h | 37700 ng·h/mL | 1353.07 to 1615.64 ng/mL |  |  |  |  |  |  |  |  | 
CC#C[C@]1(O)CC[C@H]2[C@@H]3CCC4=CC(=O)CCC4=C3[C@@H](c3ccc(N(C)C)cc3)C[C@@]21C [Mifepristone] |  |  |  | 57.1% | 56.3% | No serious AEs | ~ 85 h | > 2.67 days | 38% | 148 pg/mL | 100% | 41.9 µg/dL
